The values below come from US11752156B2, “Compositions and methods for treating hyperproliferative skin disorders” (Athenex HK Innovative Limited, priority 2018, dated 2023).

The subject of test [1] is A431 cells (epidermoid cells obtained from a human squamous cell carcinoma). Description: inhibition of cell growth by tazarotene, A431. The class given is cell-based. The source says: FIG. 8: Inhibition of A431 cell growth by tazarotenee, as determined by staining.
(§1) Examples of suitable retinoids include retinol, retinal, retinoic acid isotretinoin, alitreninoin, etretinate, acitretin, adapalene, bexarotene, and/or tazarotene. FIGS. 7 and 8 show the effects of tazarotene on growth of cells in culture, including CCD-1106 KERTr keratinocytes (FIG. 7) and A431 cells (epidermoid cells obtained from a human squamous cell carcinoma, FIG. 8).

For test [2], the system named is cell proliferation/growth. Description: combined treatment with KX01 and tazarotene, inhibition of cell proliferation/growth. The class given is cell-based.
From the text: as §1

The test system of test [3] is CCD-1106 KERTr keratinocytes. Kind of test: inhibition of cell growth by tazarotene, keratinocytes. It is filed as cell-based, human.
From the text: FIG. 7: Inhibition of CCD1106 KERTr keratinocyte growth by tazarotene, as determined by staining.
as §1

With `CCOC(=O)c1ccc(C#Cc2ccc3c(c2)C(C)(C)CCS3)nc1` [Tazarotene, tazarotene], the Maximum inhibition is 1.09 in test [1] (A431, model estimate) and 0.903 in test [3] (model estimate). Moreover, the H worked out at 1.66 in test [1] (A431, steepness of slope); 1.0 in test [2]; 2.11 in test [3] (steepness of slope). Besides, the IC50 is 36.3 µM in test [1] (Homo sapiens, A-431, A431, model estimate); 13300 nM in test [2] (column head says nM); 12.4 µM in test [3] (Homo sapiens, CCD-1106, model estimate). Moreover, the Imax in test [2] is 1.1.

The term IC50 denotes the concentration needed to halve the response being measured.
